Measurements as given in patent US20210283204A1, “Lin28a ACTIVATOR AND USE THEREFOR” (TES Holdings CO., LTD., priority 2016, published 2021).

System: Lin28a
Assay: Lin28a expression induction in mouse vascular endothelial cell line TKD2 cell (RT-PCR, agarose gel)
Type: cell-based
Details: 100 μg/mL, cultured for 5 days, FIG. 1
Experimental: Mouse vascular endothelial cell line TKD2 cell (National Institute of Biomedical Innovation, Health, and Nutrition, distributed from JCRB Cell Bank, Cell number: IF050374) was sown in advance in a 6-well plate to be 4×10^4 cells/well, and cultured overnight at 33° C. in 5% CO2 environment.
Subsequently, on the day after the date when the mouse vascular endothelial cell line TKD2 cell was sown, the exocrine secretion of Saccharomyces boulardii prepared in (1) was added to the culture medium to reach a final concentration of 100 μg/mL, and cultured for 5 days while performing addition. After the addition, the culture medium was not exchanged at all. […]
After culturing, the cell was isolated and recovered by using 0.25% of Trypsin-EDTA solution (manufactured by ThermoFisher Corporation, 25200056). […] From the total RNA, cDNA was produced by using ImProm-II (registered trademark) reverse Transcription System (Promega A3801), and expression of Lin28a was monitored by PCR using primers shown in the following Table 1. […]

## ganglioside
  expression of Lin28a: expression of Lin28a was not induced
